Measurements published in PubChem BioAssay AID330 (DTP/NCI, 2004).
Values joined by “and” are separate entries in the source; they are usually repeats but may differ in a detail not shown here. Identical values can stand only once. Toxic doses and inconclusive results are not listed. Peptide text beside a SMILES is read from it. * marks the point of attachment. Cbz = O=C(OCc1ccccc1)*

System: P388 leukemia ip, CD2F1 mice, survival T/C
Test: NCI In Vivo Anticancer Drug Screen. Data for tumor model P388 Leukemia (intraperitoneal) in CD2F1 (CDF1) mice
Conditions: endpoint: median survival time, higher = longer survival
Method in brief: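 Mice carrying the transplanted tumor received test compound or vehicle. Survival was recorded in each group, and the value is the treated-group measurement divided by that of the vehicle-treated control group.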

[1] = dose: 12.5 mg/kg/injection, schedule: Q01DX005 (ip), vehicle: saline with Tween-80
[2] = dose: 25.0 mg/kg/injection, schedule: Q01DX005 (ip), vehicle: saline with Tween-80
[3] = dose: 100.0 mg/kg/injection, schedule: Q01DX005 (ip), vehicle: saline with Tween-80
[4] = dose: 200.0 mg/kg/injection, schedule: Q01DX005 (ip), vehicle: saline with Tween-80
[5] = dose: 50.0 mg/kg/injection, schedule: Q01DX005 (ip), vehicle: saline with Tween-80
[6] = dose: 12.5 mg/kg/injection, schedule: Q01DX005 (ip), vehicle: Klucel (hydroxypropylcellulose) (HPC)
[7] = dose: 25.0 mg/kg/injection, schedule: Q01DX005 (ip), vehicle: Klucel (hydroxypropylcellulose) (HPC)
[8] = dose: 50.0 mg/kg/injection, schedule: Q01DX005 (ip), vehicle: Klucel (hydroxypropylcellulose) (HPC)
[9] = dose: 100.0 mg/kg/injection, schedule: Q01DX005 (ip), vehicle: Klucel (hydroxypropylcellulose) (HPC)
[10] = dose: 200.0 mg/kg/injection, schedule: Q01DX005 (ip), vehicle: Klucel (hydroxypropylcellulose) (HPC)
[11] = dose: 60.0 mg/kg/injection, schedule: Q01DX005 (ip), vehicle: saline with Tween-80
[12] = dose: 120.0 mg/kg/injection, schedule: Q01DX005 (ip), vehicle: saline with Tween-80
[13] = dose: 240.0 mg/kg/injection, schedule: Q01DX005 (ip), vehicle: saline with Tween-80

SMILES: CCCCCCC(/C=C/c1c(Cl)cccc1Cl)=N\O
- T/C (dose: 25.0 mg/kg/injection, schedule: Q01DX009 (ip), vehicle: saline with Tween-80): 98 % of control
- T/C (dose: 50.0 mg/kg/injection, schedule: Q01DX009 (ip), vehicle: saline with Tween-80): 100 % of control
- T/C (dose: 100.0 mg/kg/injection, schedule: Q01DX009 (ip), vehicle: saline with Tween-80): 99 % of control and 109 % of control
- T/C (dose: 200.0 mg/kg/injection, schedule: Q01DX009 (ip), vehicle: saline with Tween-80): 101 % of control
- T/C (dose: 400.0 mg/kg/injection, schedule: Q01DX009 (ip), vehicle: saline with Tween-80): 118 % of control

SMILES: C[C@@H](O)[C@H](NSc1ccccc1[N+](=O)[O-])C(=O)NCCc1nc(-c2nc(C(=O)NCCCBr)cs2)cs1
- T/C (dose: 6.25 mg/kg/injection, schedule: Q01DX005 (ip), vehicle: saline with Tween-80): 93 % of control
- T/C [1]: 95 % of control
- T/C [2]: 90 % of control
- T/C [3]: 97 % of control
- T/C [4]: 86 % of control

SMILES: O=C(c1ccc(CSc2ccc(Cl)cc2)o1)N1CCOCC1
- T/C [5]: 99 % of control
- T/C [3]: 101 % of control
- T/C [4]: 91 % of control

SMILES: CN(C)/C(=C(\CBr)C(=O)c1ccc(-c2ccccc2)cc1)c1ccccc1
- T/C [6]: 108 % of control
- T/C [7]: 105 % of control
- T/C [8]: 105 % of control and 107 % of control

SMILES: CC(C)C12CCC3(CCC4C(C)(C(=O)O)CCCC4(C)C3C1)C(CN)C2 (configuration not stated)
- T/C [7]: 101 % of control
- T/C [8]: 106 % of control
- T/C [9]: 99 % of control
- T/C [10]: 100 % of control

SMILES: CCC(C)C(NC(=O)OCc1ccccc1)C(=O)NC(CC(C)C)C(=O)O (stereo not drawn) (Cbz-Ile-Leu-OH; configuration not given here)
- T/C [8]: 114 % of control
- T/C [9]: 99 % of control
- T/C [10]: 99 % of control

SMILES: COC(=O)/C=C(\NC1CC(OC2C[C@](O)(C(C)=O)Cc3c(O)c4c(c(O)c32)C(=O)c2c(OC)cccc2C4=O)OC(C)C1O)C(=O)OC (some centres not stated)
- T/C (dose: 6.25 mg/kg/injection, schedule: Q04DX003 (ip), vehicle: saline with Tween-80): 104 % of control
- T/C (dose: 12.5 mg/kg/injection, schedule: Q04DX003 (ip), vehicle: saline with Tween-80): 105 % of control and 115 % of control
- T/C (dose: 25.0 mg/kg/injection, schedule: Q04DX003 (ip), vehicle: saline with Tween-80): 121 % of control
- T/C (dose: 100.0 mg/kg/injection, schedule: Q04DX003 (ip), vehicle: saline with Tween-80): 121 % of control

SMILES: CC(=O)c1c(O)c(C)c(O)c2c1OC1=CC(=O)/C(=C(/C)N)C(=O)C12C (configuration not stated)
- T/C (dose: 6.25 mg/kg/injection, schedule: Q01DX009 (ip), vehicle: gum acacia): 107 % of control and 112 % of control
- T/C (dose: 12.5 mg/kg/injection, schedule: Q01DX009 (ip), vehicle: gum acacia): 100 % of control and 105 % of control
- T/C (dose: 25.0 mg/kg/injection, schedule: Q01DX009 (ip), vehicle: gum acacia): 102 % of control and 109 % of control
- T/C (dose: 50.0 mg/kg/injection, schedule: Q01DX009 (ip), vehicle: gum acacia): 100 % of control and 86 % of control
- T/C (dose: 100.0 mg/kg/injection, schedule: Q01DX009 (ip), vehicle: gum acacia): 100 % of control and 106 % of control
- T/C (dose: 200.0 mg/kg/injection, schedule: Q01DX009 (ip), vehicle: gum acacia): 102 % of control and 110 % of control

SMILES: O=C(NCN1CCOCC1)Nc1ccccc1
- T/C [5]: 115 % of control
- T/C [3]: 115 % of control
- T/C [4]: 112 % of control

SMILES: C[C@H]1C(=O)OCN1C(=O)OCc1ccccc1
- T/C [11]: 100 % of control
- T/C [12]: 100 % of control
- T/C [13]: 95 % of control

SMILES: O/N=C\C(=N/O)c1ccc(O)c(O)c1
- T/C (dose: 100.0 mg/kg/injection, schedule: Q04DX002 (ip), vehicle: saline with Tween-80): 107 % of control
- T/C (dose: 200.0 mg/kg/injection, schedule: Q04DX002 (ip), vehicle: saline with Tween-80): 108 % of control
- T/C (dose: 400.0 mg/kg/injection, schedule: Q04DX002 (ip), vehicle: saline with Tween-80): 102 % of control

SMILES: Cc1cc(Br)ccc1N=Cc1ccc(C=Nc2ccc(Br)cc2C)cc1
- T/C (dose: 50.0 mg/kg/injection, schedule: Q01DX009 (ip), vehicle: saline): 90 % of control
- T/C (dose: 100.0 mg/kg/injection, schedule: Q01DX009 (ip), vehicle: saline): 86 % of control
- T/C (dose: 200.0 mg/kg/injection, schedule: Q01DX009 (ip), vehicle: saline): 92 % of control

SMILES: CN1CCOC(=O)C(C#N)=C1c1ccccc1
- T/C [11]: 110 % of control
- T/C [12]: 108 % of control
- T/C [13]: 98 % of control

SMILES: COc1cc(C(Nc2ccccn2)c2cc3c(cc2O)OCO3)cc(OC)c1O (configuration not stated)
- T/C (dose: 60.0 mg/kg/injection, schedule: Q01DX005 (ip), vehicle: Klucel (hydroxypropylcellulose) (HPC)): 91 % of control
- T/C (dose: 120.0 mg/kg/injection, schedule: Q01DX005 (ip), vehicle: Klucel (hydroxypropylcellulose) (HPC)): 91 % of control
- T/C (dose: 240.0 mg/kg/injection, schedule: Q01DX005 (ip), vehicle: Klucel (hydroxypropylcellulose) (HPC)): 94 % of control

SMILES: Nc1nc(-c2ccccc2)c(-c2ccccc2)n1C(=O)NCCCl
- T/C (dose: 12.5 mg/kg/injection, schedule: Q04DX002 (ip), vehicle: saline with Tween-80): 114 % of control
- T/C (dose: 25.0 mg/kg/injection, schedule: Q04DX002 (ip), vehicle: saline with Tween-80): 113 % of control
- T/C (dose: 50.0 mg/kg/injection, schedule: Q04DX002 (ip), vehicle: saline with Tween-80): 113 % of control

SMILES: CCOC(=O)/C(C(C)=O)=C1/c2c(ccc(OC)c2OC)C=C2c3cc4c(cc3CCN21)OCO4
- T/C (dose: 0.63 mg/kg/injection, schedule: Q01DX009 (ip), vehicle: water): 105 % of control
- T/C (dose: 1.25 mg/kg/injection, schedule: Q01DX009 (ip), vehicle: water): 108 % of control
- T/C (dose: 2.5 mg/kg/injection, schedule: Q01DX009 (ip), vehicle: water): 101 % of control
- T/C (dose: 5.0 mg/kg/injection, schedule: Q01DX009 (ip), vehicle: water): 124 % of control
- T/C (dose: 10.0 mg/kg/injection, schedule: Q01DX009 (ip), vehicle: water): 101 % of control
- T/C (dose: 20.0 mg/kg/injection, schedule: Q01DX009 (ip), vehicle: water): 107 % of control

SMILES: C/C(=N\NC(=S)N1CCCCCC1)c1cc2ccccc2cn1
- T/C (dose: 3.12 mg/kg/injection, schedule: Q01DX005 (ip), vehicle: distilled water + Tween-80 + alcohol): 100 % of control
- T/C (dose: 6.25 mg/kg/injection, schedule: Q01DX005 (ip), vehicle: Klucel (hydroxypropylcellulose) (HPC)): 117 % of control
- T/C (dose: 6.25 mg/kg/injection, schedule: Q01DX005 (ip), vehicle: distilled water + Tween-80 + alcohol): 111 % of control
- T/C [6]: 116 % of control
- T/C (dose: 12.5 mg/kg/injection, schedule: Q01DX005 (ip), vehicle: distilled water + Tween-80 + alcohol): 105 % of control
- T/C [7]: 121 % of control
- T/C (dose: 25.0 mg/kg/injection, schedule: Q01DX005 (ip), vehicle: distilled water + Tween-80 + alcohol): 118 % of control

SMILES: O=C1C(N2CC2)=C(N2CC2)C(=O)c2ncncc21
- T/C (dose: 2.5 mg/kg/injection, schedule: Q01DX005 (ip), vehicle: saline): 105 % of control
- T/C (dose: 5.0 mg/kg/injection, schedule: Q01DX005 (ip), vehicle: saline): 104 % of control and 113 % of control
- T/C (dose: 10.0 mg/kg/injection, schedule: Q01DX005 (ip), vehicle: saline): 107 % of control

SMILES: CC/S(=N\S(=O)(=O)c1ccc(C)cc1)c1cccc[n+]1[O-] (configuration not stated)
- T/C [11]: 100 % of control
- T/C [12]: 110 % of control
- T/C [13]: 100 % of control

SMILES: CN1C(=O)NC2(CCCCC2)C1=O
- T/C [8]: 105 % of control
- T/C [9]: 100 % of control
- T/C [10]: 100 % of control

SMILES: Nc1nnc(-c2cccc(-c3nnc(N)o3)c2)o1
- T/C (dose: 60.0 mg/kg/injection, schedule: Q01DX005 (ip), vehicle: saline): 98 % of control
- T/C (dose: 120.0 mg/kg/injection, schedule: Q01DX005 (ip), vehicle: saline): 99 % of control
- T/C (dose: 240.0 mg/kg/injection, schedule: Q01DX005 (ip), vehicle: saline): 102 % of control

SMILES: CCc1nc(N)nc(N)c1-c1ccc(N)cc1
- T/C [1]: 104 % of control
- T/C [2]: 100 % of control
- T/C [5]: 98 % of control and 99 % of control

SMILES: C/C(=N\OC(=O)c1ccccc1)c1ccccc1
- T/C (dose: 100.0 mg/kg/injection, schedule: Q04DX003 (ip), vehicle: saline): 102 % of control
- T/C (dose: 200.0 mg/kg/injection, schedule: Q04DX003 (ip), vehicle: saline): 102 % of control
- T/C (dose: 400.0 mg/kg/injection, schedule: Q04DX003 (ip), vehicle: saline): 100 % of control

SMILES: O=c1[nH]cnc2nc(/N=N/SCCO)[nH]c12
- T/C [7]: 104 % of control
- T/C [8]: 110 % of control
- T/C [9]: 119 % of control

SMILES: CCCCNc1ccc(-c2c(N)nc(N)nc2CC)cc1[N+](=O)[O-]
- T/C [11]: 111 % of control and 118 % of control
- T/C [12]: 121 % of control
- T/C [13]: 206 % of control
- T/C (dose: 480.0 mg/kg/injection, schedule: Q01DX005 (ip), vehicle: saline with Tween-80): 158 % of control
